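Values below derive from 48-hour exposures of cells grown in 96-well plates, with endpoints linearly interpolated between the two concentrations bracketing the appropriate inhibition level. The concentration for 50% growth inhibition is given as GI50.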 Active and inactive are the calls of the source. Cut-off read from the data, not from the text of the source: active = GI50 up to about 1.1 µM and inactive = higher.
Columns and labels:
Experiment in all cases: DTP human tumour cell line panel, 48 h
[1] = tested on: MCF7
[2] = tested on: EKVX
[3] = tested on: SN12C
[4] = tested on: SK-MEL-2
[5] = tested on: SNB-75
[6] = tested on: SK-MEL-5
[7] = tested on: RPMI-8226
[8] = tested on: NCI/ADR-RES
[9] = tested on: BT-549
[10] = tested on: M14
[11] = tested on: 786-0
[12] = tested on: UACC-257
[13] = tested on: K562
[14] = tested on: SR
[15] = tested on: NCI-H522
[16] = tested on: COLO 205
[17] = tested on: UO-31
[18] = tested on: ACHN
[19] = tested on: SK-MEL-28
[20] = tested on: DU-145
[21] = tested on: OVCAR-5
[22] = tested on: HCT-116
[23] = tested on: RXF 393
[24] = tested on: HCT-15
[25] = tested on: SF-539
[26] = tested on: MOLT-4
[27] = tested on: HT-29
[28] = tested on: A549
[29] = tested on: CCRF-CEM
[30] = tested on: UACC-62
[31] = tested on: LOX IMVI
[32] = tested on: CAKI-1
[33] = tested on: MDA-N
[34] = tested on: PC-3
[35] = tested on: OVCAR-3
[36] = tested on: A498
[37] = tested on: U-251
[38] = tested on: NCI-H226
[39] = tested on: Hs-578T
[40] = tested on: HOP-62
[41] = tested on: MDA-MB-435
[42] = tested on: HL-60
[43] = tested on: SNB-19
[44] = tested on: MDA-MB-231
[45] = tested on: NCI-H460
[46] = tested on: HOP-92
[47] = tested on: SW-620
[48] = tested on: OVCAR-4
[49] = tested on: SF-295
[50] = tested on: NCI-H23
[51] = tested on: Malme-3M
[52] = tested on: OVCAR-8
[53] = tested on: IGROV-1
[54] = tested on: SF-268
[55] = tested on: KM12
[56] = tested on: HCC 2998
[57] = tested on: SK-OV-3
[58] = tested on: T47D
[59] = tested on: TK-10

CCc1ccc2oc(=O)ccc2c1
GI50 [1]: > 100 µM (inactive) | GI50 [2]: 32.2 µM (inactive) | GI50 [3]: > 100 µM (inactive) | GI50 [4]: > 100 µM (inactive) | GI50 [5]: > 100 µM (inactive) | GI50 [6]: > 100 µM (inactive) | GI50 [7]: 91 µM (inactive) | GI50 [8]: > 100 µM (inactive) | GI50 [9]: > 100 µM (inactive) | GI50 [10]: > 100 µM (inactive) | GI50 [11]: > 100 µM (inactive) | GI50 [12]: > 100 µM (inactive) | GI50 [13]: > 100 µM (inactive) | GI50 [14]: > 100 µM (inactive) | GI50 [15]: > 100 µM (inactive) | GI50 [16]: > 100 µM (inactive) | GI50 [17]: 31.4 µM (inactive) | GI50 [18]: > 100 µM (inactive) | GI50 [19]: > 100 µM (inactive) | GI50 [20]: > 10 µM (inactive) | GI50 [21]: > 100 µM (inactive) | GI50 [22]: > 100 µM (inactive) | GI50 [23]: > 100 µM (inactive) | GI50 [24]: > 100 µM | GI50 [25]: > 100 µM (inactive) | GI50 [26]: > 100 µM (inactive) | GI50 [27]: > 100 µM (inactive) | GI50 [28]: > 100 µM (inactive) | GI50 [29]: > 100 µM (inactive) | GI50 [30]: 35.7 µM (inactive) | GI50 [31]: > 100 µM (inactive) | GI50 [32]: > 100 µM (inactive) | GI50 [33]: > 100 µM (inactive) | GI50 [34]: > 100 µM (inactive) | GI50 [35]: > 100 µM (inactive) | GI50 [36]: > 100 µM (inactive) | GI50 [37]: > 100 µM (inactive) | GI50 [38]: > 100 µM (inactive) | GI50 [39]: > 100 µM (inactive) | GI50 [40]: > 100 µM (inactive) | GI50 [41]: > 100 µM (inactive) | GI50 [42]: 42.5 µM (inactive) | GI50 [43]: > 100 µM (inactive) | GI50 [44]: > 10 µM (inactive) | GI50 [45]: > 100 µM (inactive) | GI50 [46]: > 100 µM (inactive) | GI50 [47]: > 100 µM (inactive) | GI50 [48]: > 100 µM (inactive) | GI50 [49]: > 100 µM (inactive) | GI50 [50]: > 100 µM (inactive) | GI50 [51]: > 100 µM (inactive) | GI50 [52]: > 100 µM (inactive) | GI50 [53]: > 100 µM (inactive) | GI50 [54]: > 100 µM (inactive) | GI50 [55]: > 100 µM (inactive) | GI50 [56]: > 100 µM (inactive)

CCN(CC)C(=S)SS(=O)(=O)c1ccc([N+](=O)[O-])cc1
GI50 [2]: > 100 µM (inactive) | GI50 [4]: 48.3 µM (inactive) | GI50 [6]: 2.77 µM (inactive) | GI50 [7]: 12.8 µM (inactive) | GI50 [9]: 36.8 µM (inactive) | GI50 [57]: > 100 µM (inactive) | GI50 [11]: 16.7 µM (inactive) | GI50 [13]: 19.4 µM (inactive) | GI50 [14]: 0.148 µM (active) | GI50 [15]: 0.0282 µM (active) | GI50 [16]: 19.9 µM (inactive) | GI50 [17]: 21.7 µM (inactive) | GI50 [21]: > 100 µM (inactive) | GI50 [25]: 21.2 µM (inactive) | GI50 [28]: 1.18 µM (inactive) | GI50 [30]: 27.4 µM (inactive) | GI50 [31]: 17.5 µM (inactive) | GI50 [32]: 18.8 µM (inactive) | GI50 [36]: > 100 µM (inactive) | GI50 [37]: 14.5 µM (inactive) | GI50 [43]: 76.7 µM (inactive) | GI50 [45]: 96.2 µM (inactive) | GI50 [50]: 56.8 µM (inactive) | GI50 [58]: 43.2 µM (inactive) | GI50 [51]: 14.9 µM (inactive) | GI50 [52]: 20.4 µM (inactive)

Cc1c(N=C(S)Nc2ccc(Cl)cc2)c(=O)n(-c2ccccc2)n1C
GI50 [1]: > 100 µM (inactive) | GI50 [2]: > 100 µM (inactive) | GI50 [5]: > 100 µM (inactive) | GI50 [6]: > 100 µM (inactive) | GI50 [7]: > 100 µM (inactive) | GI50 [8]: > 100 µM (inactive) | GI50 [9]: > 100 µM (inactive) | GI50 [10]: > 100 µM (inactive) | GI50 [57]: > 100 µM (inactive) | GI50 [11]: > 100 µM (inactive) | GI50 [12]: > 100 µM (inactive) | GI50 [13]: > 100 µM (inactive) | GI50 [14]: > 100 µM (inactive) | GI50 [15]: > 100 µM (inactive) | GI50 [16]: > 100 µM (inactive) | GI50 [17]: > 100 µM (inactive) | GI50 [18]: > 100 µM (inactive) | GI50 [19]: > 100 µM (inactive) | GI50 [20]: > 100 µM (inactive) | GI50 [21]: > 100 µM (inactive) | GI50 [22]: > 100 µM (inactive) | GI50 [23]: > 100 µM (inactive) | GI50 [24]: > 100 µM | GI50 [25]: > 100 µM (inactive) | GI50 [26]: > 100 µM (inactive) | GI50 [27]: > 100 µM (inactive) | GI50 [28]: > 100 µM (inactive) | GI50 [29]: > 100 µM (inactive) | GI50 [30]: > 100 µM (inactive) | GI50 [31]: > 100 µM (inactive) | GI50 [32]: > 100 µM (inactive) | GI50 [33]: > 100 µM (inactive) | GI50 [34]: > 100 µM (inactive) | GI50 [35]: > 100 µM (inactive) | GI50 [36]: > 100 µM (inactive) | GI50 [37]: > 100 µM (inactive) | GI50 [38]: > 100 µM (inactive) | GI50 [39]: > 100 µM (inactive) | GI50 [40]: > 100 µM (inactive) | GI50 [41]: > 100 µM (inactive) | GI50 [42]: > 100 µM (inactive) | GI50 [43]: > 100 µM (inactive) | GI50 [44]: > 100 µM (inactive) | GI50 [45]: > 100 µM (inactive) | GI50 [46]: > 100 µM (inactive) | GI50 [47]: > 100 µM (inactive) | GI50 [49]: > 100 µM (inactive) | GI50 [50]: > 100 µM (inactive) | GI50 [51]: > 100 µM (inactive) | GI50 [53]: > 100 µM (inactive) | GI50 [54]: > 100 µM (inactive) | GI50 [59]: > 100 µM (inactive) | GI50 [55]: > 100 µM (inactive) | GI50 [56]: > 100 µM (inactive)
